Measurements: ChEMBL document CHEMBL1201862, “PubChem BioAssay data set” (2004)
The source made the active and inactive calls.

Key:
[1] = growth suppression of beta-catenin-knockout colon cells, dose response, cell-based, HCT116, human colon tumor (AID 1045); type: functional;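 also: HCT116 colon tumor cells with beta catenin knocked out; cells exposed to compound for 60 hours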
[2] = growth suppression of PTEN-null colon cells, dose response, cell-based, HCT116 PTEN knockout (AID 1047); type: functional;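 also: HCT116 colon tumor cells with PTEN knocked out; cells exposed to compound for 60 hours before readout; potency for loss of cell viability measured by luminescence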
Protein skinhead-1 = biological target: T1, Protein skinhead-1 (Caenorhabditis elegans, UniProt P34707); type: functional
T1 sequence (P34707 whole entry): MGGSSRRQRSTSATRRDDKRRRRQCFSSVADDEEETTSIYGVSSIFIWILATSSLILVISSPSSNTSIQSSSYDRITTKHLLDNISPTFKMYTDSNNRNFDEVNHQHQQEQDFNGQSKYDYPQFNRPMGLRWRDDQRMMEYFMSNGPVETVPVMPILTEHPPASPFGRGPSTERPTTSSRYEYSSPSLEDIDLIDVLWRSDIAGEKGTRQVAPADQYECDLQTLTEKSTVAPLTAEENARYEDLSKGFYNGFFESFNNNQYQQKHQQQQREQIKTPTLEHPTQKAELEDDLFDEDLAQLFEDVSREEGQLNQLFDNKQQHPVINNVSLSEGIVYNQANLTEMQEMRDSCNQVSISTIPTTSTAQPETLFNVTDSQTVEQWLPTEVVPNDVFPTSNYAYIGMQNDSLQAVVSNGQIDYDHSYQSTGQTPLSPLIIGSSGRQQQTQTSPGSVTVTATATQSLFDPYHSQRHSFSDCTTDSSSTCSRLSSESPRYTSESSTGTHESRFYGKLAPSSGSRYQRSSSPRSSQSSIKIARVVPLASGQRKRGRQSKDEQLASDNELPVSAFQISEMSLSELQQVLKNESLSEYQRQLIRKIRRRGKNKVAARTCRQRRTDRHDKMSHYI

[3] = biological target: T2, Sentrin-specific protease 6 (Homo sapiens, UniProt Q9GZR1); type: functional;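 also: Luminescence-based dose-response confirmatory assay of SENP6 inhibition, following up an ultra-high-throughput screen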
T2 sequence (Q9GZR1 whole entry): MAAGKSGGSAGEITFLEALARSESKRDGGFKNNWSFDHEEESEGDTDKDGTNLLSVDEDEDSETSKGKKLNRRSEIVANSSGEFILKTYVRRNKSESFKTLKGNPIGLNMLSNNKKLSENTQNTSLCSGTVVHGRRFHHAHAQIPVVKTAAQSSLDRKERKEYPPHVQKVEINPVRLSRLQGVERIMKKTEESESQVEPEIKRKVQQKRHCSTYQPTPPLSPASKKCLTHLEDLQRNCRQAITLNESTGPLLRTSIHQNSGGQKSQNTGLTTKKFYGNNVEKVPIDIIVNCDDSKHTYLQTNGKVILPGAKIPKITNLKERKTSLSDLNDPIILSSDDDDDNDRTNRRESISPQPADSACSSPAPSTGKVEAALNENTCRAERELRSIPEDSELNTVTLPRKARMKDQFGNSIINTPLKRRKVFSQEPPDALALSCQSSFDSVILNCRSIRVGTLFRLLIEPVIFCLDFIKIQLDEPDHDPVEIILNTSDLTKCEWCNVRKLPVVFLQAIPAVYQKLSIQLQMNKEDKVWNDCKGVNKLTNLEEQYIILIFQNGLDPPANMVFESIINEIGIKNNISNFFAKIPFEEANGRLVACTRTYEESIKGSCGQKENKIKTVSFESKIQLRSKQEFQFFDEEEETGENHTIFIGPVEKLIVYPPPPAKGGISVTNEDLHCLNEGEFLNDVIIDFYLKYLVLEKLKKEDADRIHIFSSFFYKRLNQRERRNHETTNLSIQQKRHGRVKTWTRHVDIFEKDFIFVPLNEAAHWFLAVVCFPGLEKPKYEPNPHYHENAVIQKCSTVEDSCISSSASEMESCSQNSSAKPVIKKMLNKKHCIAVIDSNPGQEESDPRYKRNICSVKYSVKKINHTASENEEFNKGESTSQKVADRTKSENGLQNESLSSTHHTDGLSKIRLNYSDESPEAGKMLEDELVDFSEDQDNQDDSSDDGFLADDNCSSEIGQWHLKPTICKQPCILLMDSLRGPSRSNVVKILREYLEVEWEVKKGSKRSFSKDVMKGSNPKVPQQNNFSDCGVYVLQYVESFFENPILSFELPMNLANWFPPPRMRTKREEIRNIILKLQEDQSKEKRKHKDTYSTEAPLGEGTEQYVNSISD

Caspase-3 = biological target: T3, Caspase-3 (Homo sapiens, UniProt P42574); type: functional;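 also: Dose-response selectivity test against caspase-3 for candidate inhibitors of sentrin-specific proteases (SENPs)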
T3 sequence (P42574 whole entry): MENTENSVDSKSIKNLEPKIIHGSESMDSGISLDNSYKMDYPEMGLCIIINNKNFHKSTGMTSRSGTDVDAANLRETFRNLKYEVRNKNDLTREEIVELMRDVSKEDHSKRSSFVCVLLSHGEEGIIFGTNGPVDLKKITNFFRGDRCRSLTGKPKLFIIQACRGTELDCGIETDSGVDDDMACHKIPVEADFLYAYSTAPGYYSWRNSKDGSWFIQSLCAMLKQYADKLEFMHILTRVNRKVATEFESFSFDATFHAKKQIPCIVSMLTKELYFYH

[4] = biological target: T4, Sentrin-specific protease 7 (Homo sapiens, UniProt Q9BQF6); type: functional;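 also: Luminescence-based dose-response confirmation of ultra-high-throughput screening hits, measuring inhibition of SENP7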
T4 sequence (Q9BQF6 whole entry): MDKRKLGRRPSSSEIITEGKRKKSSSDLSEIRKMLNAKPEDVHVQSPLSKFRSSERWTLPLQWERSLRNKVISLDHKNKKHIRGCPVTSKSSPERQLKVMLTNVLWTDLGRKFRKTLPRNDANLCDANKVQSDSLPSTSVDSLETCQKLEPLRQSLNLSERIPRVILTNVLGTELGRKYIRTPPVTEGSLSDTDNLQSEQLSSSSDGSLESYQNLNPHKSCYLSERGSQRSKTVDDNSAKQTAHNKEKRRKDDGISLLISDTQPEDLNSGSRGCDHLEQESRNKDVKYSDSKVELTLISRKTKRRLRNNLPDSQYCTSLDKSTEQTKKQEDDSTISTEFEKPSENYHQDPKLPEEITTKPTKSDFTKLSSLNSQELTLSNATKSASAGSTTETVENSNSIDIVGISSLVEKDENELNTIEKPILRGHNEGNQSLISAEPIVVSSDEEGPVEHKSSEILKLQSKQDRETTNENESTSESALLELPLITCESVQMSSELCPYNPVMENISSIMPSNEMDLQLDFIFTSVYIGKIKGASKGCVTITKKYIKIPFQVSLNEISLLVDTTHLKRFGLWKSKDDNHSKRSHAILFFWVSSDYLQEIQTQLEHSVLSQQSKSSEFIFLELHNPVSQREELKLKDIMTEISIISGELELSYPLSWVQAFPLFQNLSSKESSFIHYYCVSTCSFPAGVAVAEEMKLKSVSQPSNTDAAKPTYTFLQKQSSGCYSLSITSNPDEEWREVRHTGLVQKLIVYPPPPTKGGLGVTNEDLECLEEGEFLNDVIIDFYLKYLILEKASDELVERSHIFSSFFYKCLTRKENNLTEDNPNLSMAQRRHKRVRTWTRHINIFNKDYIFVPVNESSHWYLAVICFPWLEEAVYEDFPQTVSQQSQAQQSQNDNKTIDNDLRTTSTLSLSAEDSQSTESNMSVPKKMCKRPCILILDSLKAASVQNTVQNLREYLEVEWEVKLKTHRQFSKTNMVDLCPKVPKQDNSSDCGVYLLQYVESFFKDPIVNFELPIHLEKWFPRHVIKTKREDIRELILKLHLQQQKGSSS

[5] = biological target: T5, Sentrin-specific protease 8 (Homo sapiens, UniProt Q96LD8); type: functional;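 also: luminescence read-out of SENP8 inhibition, dose-response confirmation following an ultra-high-throughput screen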
T5 sequence (Q96LD8 whole entry): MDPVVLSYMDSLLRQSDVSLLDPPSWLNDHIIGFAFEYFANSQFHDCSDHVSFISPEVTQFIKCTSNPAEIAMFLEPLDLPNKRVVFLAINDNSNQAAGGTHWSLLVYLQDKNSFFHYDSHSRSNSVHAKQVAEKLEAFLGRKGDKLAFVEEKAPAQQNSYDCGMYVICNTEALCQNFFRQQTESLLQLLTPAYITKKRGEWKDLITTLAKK

Streptococcus = test: Group A Streptococcus viability loss, dose response, counter-screen for streptokinase expression inhibitor project, luminescence, BacTiterGlo (AID 1915); type: functional, organism-based;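 also: potency for reduction of bacterial viability or growth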
Streptokinase A = biological target: T6, Streptokinase A (Streptococcus pyogenes serotype M1, UniProt P10520); test: S. pyogenes streptokinase expression inhibitors, potency, dose response, plasminogen activation absorbance, OD405 (AID 1914); type: functional, Streptococcus pyogenes M1 GAS;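 also: secreted streptokinase activity via plasminogen activation per viability signal from cell pellet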
T6 sequence (P10520 whole entry): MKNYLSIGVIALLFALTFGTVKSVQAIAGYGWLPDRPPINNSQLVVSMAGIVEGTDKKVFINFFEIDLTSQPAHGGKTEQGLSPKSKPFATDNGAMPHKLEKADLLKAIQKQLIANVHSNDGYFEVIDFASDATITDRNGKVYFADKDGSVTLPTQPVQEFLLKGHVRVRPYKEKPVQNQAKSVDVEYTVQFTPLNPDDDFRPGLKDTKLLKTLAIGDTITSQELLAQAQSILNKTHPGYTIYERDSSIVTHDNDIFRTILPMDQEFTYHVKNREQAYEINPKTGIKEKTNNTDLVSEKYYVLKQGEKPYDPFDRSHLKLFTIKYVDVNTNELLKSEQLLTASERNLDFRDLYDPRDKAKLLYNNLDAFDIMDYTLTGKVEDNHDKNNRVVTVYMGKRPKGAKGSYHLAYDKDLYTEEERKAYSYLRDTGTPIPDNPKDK

[6] = tested on: Streptococcus sp. 'group A'; test: growth inhibition of control SK(-) GAS strain, dose response, counter-screen for streptokinase expression inhibitor project, luminescence, kanamycin, BacTiterGlo, confirmation (AID 1900); type: functional, organism-based
[7] = biological target: T7, Replicative DNA helicase DnaB (Mycobacterium tuberculosis, UniProt P9WMR3); test: DnaB intein splicing inhibitors, dose response, biochemical, cell-free fluorescence (AID 449749); type: functional
T7 sequence (P9WMR3 whole entry): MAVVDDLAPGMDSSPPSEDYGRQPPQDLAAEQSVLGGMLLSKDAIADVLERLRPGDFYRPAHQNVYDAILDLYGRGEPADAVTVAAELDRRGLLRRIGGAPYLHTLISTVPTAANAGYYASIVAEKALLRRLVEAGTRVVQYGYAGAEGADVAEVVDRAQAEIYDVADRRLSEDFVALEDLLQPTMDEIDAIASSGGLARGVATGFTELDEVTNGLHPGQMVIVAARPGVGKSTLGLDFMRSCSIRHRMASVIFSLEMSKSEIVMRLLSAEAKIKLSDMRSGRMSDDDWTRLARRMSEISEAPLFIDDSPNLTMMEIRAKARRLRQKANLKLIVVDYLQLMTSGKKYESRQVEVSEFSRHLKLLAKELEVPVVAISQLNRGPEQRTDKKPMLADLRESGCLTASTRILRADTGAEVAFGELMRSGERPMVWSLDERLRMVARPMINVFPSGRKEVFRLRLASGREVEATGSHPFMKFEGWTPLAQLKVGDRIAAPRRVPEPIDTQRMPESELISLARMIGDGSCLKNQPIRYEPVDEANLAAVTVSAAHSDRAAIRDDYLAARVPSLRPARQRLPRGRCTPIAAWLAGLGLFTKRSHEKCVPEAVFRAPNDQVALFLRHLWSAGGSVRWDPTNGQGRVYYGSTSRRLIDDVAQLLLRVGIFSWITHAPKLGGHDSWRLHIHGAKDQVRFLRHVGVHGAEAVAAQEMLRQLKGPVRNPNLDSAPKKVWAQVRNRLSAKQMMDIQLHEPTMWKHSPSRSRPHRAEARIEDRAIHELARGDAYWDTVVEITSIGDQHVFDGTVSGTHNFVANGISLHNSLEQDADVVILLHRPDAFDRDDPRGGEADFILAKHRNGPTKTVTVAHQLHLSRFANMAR

Protein RecA = biological target: T8, Protein RecA (Mycobacterium tuberculosis, UniProt P9WHJ3); test: Fluorescence Cell-Free Homogeneous Dose Retest to Identify Inhibitors of RecA-Intein Splicing Activity. [Related pubchem assays (depositor defined):AID2097, AID2223, AID489010, AID492950]; type: functional
T8 sequence (P9WHJ3 whole entry): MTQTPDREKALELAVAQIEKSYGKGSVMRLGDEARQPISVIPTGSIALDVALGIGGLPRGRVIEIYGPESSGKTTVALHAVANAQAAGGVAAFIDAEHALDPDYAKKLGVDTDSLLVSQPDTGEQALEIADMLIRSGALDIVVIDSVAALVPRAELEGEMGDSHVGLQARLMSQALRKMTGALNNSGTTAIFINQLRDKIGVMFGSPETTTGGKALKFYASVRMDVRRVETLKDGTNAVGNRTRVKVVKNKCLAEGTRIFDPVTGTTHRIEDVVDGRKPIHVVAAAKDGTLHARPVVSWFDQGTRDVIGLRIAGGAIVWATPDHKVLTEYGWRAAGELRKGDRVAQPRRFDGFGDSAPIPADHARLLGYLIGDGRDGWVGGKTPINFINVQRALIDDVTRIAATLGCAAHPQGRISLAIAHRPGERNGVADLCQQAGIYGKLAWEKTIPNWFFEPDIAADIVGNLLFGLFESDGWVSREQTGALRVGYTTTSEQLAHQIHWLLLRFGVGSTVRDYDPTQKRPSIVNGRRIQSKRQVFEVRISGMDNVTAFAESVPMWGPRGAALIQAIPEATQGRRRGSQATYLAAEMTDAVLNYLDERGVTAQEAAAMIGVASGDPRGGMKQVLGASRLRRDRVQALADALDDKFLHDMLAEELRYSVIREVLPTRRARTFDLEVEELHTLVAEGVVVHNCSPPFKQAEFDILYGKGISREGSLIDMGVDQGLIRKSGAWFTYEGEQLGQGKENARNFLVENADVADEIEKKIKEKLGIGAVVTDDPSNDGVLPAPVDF

Compound | EC50 [1] | EC50 [2] | IC50 (Protein skinhead-1) | also measured
CC(C)=CC(=O)Nc1nnc(-c2ccc(F)cc2)s1 | 13.8 µM (active) | 18.2 µM (active) |  | 
Clc1ccsc1-c1csc(-c2cccnc2)n1 |  |  | > 100 µM (inactive) | IC50 [3]: 11.3 µM (active); IC50 (Caspase-3): 19.4 µM (active); IC50 [4]: 6.3 µM (active); IC50 [5]: 22.6 µM (active)
COC(=O)c1ccc(-c2csc(NC(=O)c3ccc(S(=O)(=O)N4CCc5ccccc5C4)cc3)n2)cc1 | 10.2 µM (active) | 10.3 µM (active) |  | 
CC(C)NC(=O)NC(=O)CSc1nnc(COc2ccccc2F)n1C(C)C1CC2CCC1C2 (centres undefined) | 20.8 µM (active) | 19 µM (active) |  | EC50 (Streptococcus): > 150 µM (not active); EC50 (Streptokinase A): 16.8 µM (active); EC50 [6]: 5.26 µM (active)
COc1cc2c(cc1OC)CN(c1nc(CN3CCOCC3)nc3sc4c(c13)CCCC4)CC2 | 6.69 µM (active) | 4.64 µM (active) |  | 
COc1ccc(-c2cc(C(=O)n3cnc4ccccc43)c3ccccc3n2)cc1 |  |  | > 100 µM (inactive) | AC50 [7]: > 380 µM (inactive); EC50 (Protein RecA): 3.72 µM (active)
